Series [1] in a line: Mussel plantigrade larvae settlement, 15 h acute exposure assay. The settings on record: Mytilus galloprovincialis (mussel, plantigrade larvae), in vivo, no mortality at highest tested concentration 12 µg/mL. In kind it is in vivo. The method, then:
(§1) Mussel (M. galloprovincialis) adhesive larvae (plantigrades) were used to assess in vivo the antifouling activity of napyradiomycins (1–12) towards macrofouling. Juvenile mussel aggregates were collected at the intertidal rocky shore during low spring tides, at Memória beach, Matosinhos, Portugal (41°13′59″ N; 8°43′28″ W). At the laboratory, immediately before the bioassays, mussel plantigrade larvae were screened and isolated from the juvenile aggregates using a binocular microscope (Olympus SZX2-ILLT, Hamburg, Germany) and washed with filtered seawater to remove organic debris. Only competent plantigrade larvae (those showing foot exploratory behavior) were selected and used in the exposure bioassays following previously validated procedures. Plantigrades were exposed in 24-well polystyrene plates for 15 h in the darkness at 18 °C. DMSO was used as solvent for crude extracts, fractions and pure compounds stock and working solutions. Working solutions were prepared by successive dilutions of stock solutions in DMSO and then diluted in filtered seawater to obtain the test solutions. DMSO concentration in test solutions was always 0.1%. Four well replicates were used per condition with five larvae per well. Two negative controls, one with ultra-pure water and the other with DMSO 0.1% were included in all bioassays, as well as a positive control with 5 μM CuSO4 (a potent antifouling agent). Anti-settlement bioactivity was determined by the presence/absence of fixed byssal threads produced by each individual larvae for all the conditions tested. […] Chi-square Pearsons goodness-of-fit test was applied to data in order to determine EC50. Significance was considered at p < 0.01 for all analyses, and 95% lower and upper confidence limits [95% LCL; UCL] were presented. Therapeutic ratio (LC50/EC50) was used to evaluate the effectiveness vs. toxicity of compounds [19, 21].

In series [2] the test system is M. galloprovincialis plantigrade larvae. Described as above. In kind it is in vivo. The conditions noted are these: 95% LCL, UCL in brackets. The method, then:
as §1

In the next series the test system is C. marina. Nature of the series: Biofilm inhibition assay (crystal violet). Format: cell-based, Cobetia marina. The settings on record: 31.25 µg/mL. The method, then:
(§2) In a 96-well plate, biofilm grown cultures of M. hydrocarbonoclasticus and C. marina were incubated with napyradiomycins (1–12) at a concentration of 31.25 µg/mL. After discarding the media, biofilm inhibition was determined from OD600 measurements of crystal violet stained cells resuspended from the plate bottom with acetic acid.
(§3) Five marine bacterial species were used as models to assess antimicrofouling activity. The biofilm-forming marine bacteria Marinobacter hydrocarbonoclasticus DSM 8798 (ATCC 49840), Cobetia marina DSM 4741, Phaeobacter inhibens DSM 17,395, and Pseusooceanicola batsensis DSM 15,984 were obtained from DSMZ (Leibniz Institute DSMZ—German collection of Microorganisms and Cell Cultures) and Micrococcus luteus. Cultures were routinely grown in liquid marine broth (Carl Roth GmbH, Karlsruhe, Germany) with agitation (180 rpm) or on agar-supplemented marine broth, at 28 °C (M. hydrocarbonoclasticus and C. marina) or 30 °C (P. inhibens and P. batsensis). M. luteus was maintained in Brain Heart Infusion broth (BHI, Becton Dickinson, GmbH, Heidelberg, Germany) with agitation (180 rpm) or on agar-supplemented BHI, at 37 °C.
(§4) The antibiofilm activity of napyradiomycins (1–12) against the five marine bacterial species was assessed in 96-well polystyrene flat bottom microplates (Nunclon Delta Surface, Thermo Scientific, Roskilde, Denmark) as previously reported. For initial screening, bacterial overnight cultures were diluted to an optical density (OD600nm) value of 0.2 and incubated statically at 28 °C (M. hydrocarbonoclasticus, C. marina), 30 °C (P. inhibens, P. batsensis) or 37 °C (M. luteus) in the 96-well microplate in the presence or absence of 31.25 µg/mL of napyradiomycins, solubilized in DMSO. After 24 h (M. hydrocarbonoclasticus, C. marina) or 48 h (P. batsensis, P. inhibens, M. luteus) incubation, the OD600nm was determined. The planktonic cells and media were discarded, and the wells were washed twice with deionized water. The biofilm was fixed for 1 h at 60 °C and stained with crystal violet 0.06% for 10 min. The dye was discarded, and the wells were again washed twice with deionized water. The stained biofilm was solubilized with 30% acetic acid and the OD600nm was determined. […] The percentage of biofilm inhibition was calculated as the amount of biofilm relative to that of the bacterial species without added compounds (with the same amount of DMSO added). CuSO4 (5 μM), a potent antifouling agent used in antifouling paints, was used as reference.
(§5) All assays were performed in triplicate, and results are representative of the average and standard error of the mean (SEM). Statistical analysis was performed in GraphPad Prism 8.0.2, using one-way ANOVA followed by a Dunnett’s multiple comparisons test against the control (species grown with the same amount of DMSO added).

The next series deals with M. luteus. Nature of the series: Biofilm inhibition assay (crystal violet). In kind it is cell-based, Micrococcus luteus. The procedure:
as §2, §3, §4, §5

≈ marks a conversion by molar mass, not a printed value.

The LC50 is the concentration that kills 50% of the test population. As a reminder, the EC50 is the concentration giving half of the maximal effect. As a reminder, the inhibition is the percentage by which the read-out fell short of the control.

In series [1], `CC(C)=CCCC(C)=CCC12OC(C)(C)C(Cl)CC1(Cl)C(=O)c1c(O)cc(O)cc1C2=O` (centres unmarked) [Napyradiomycin 1, napyradiomycin A1] yielded an LC50 at 15 h of more than 12 µg/mL. In series [2], the “EC50 [Conf. limits] larval settlement” value was 0.655 [0.300; 0.906] µg/mL. In series [2] (Mytilus galloprovincialis, 15 h, read-out: EC50 [Conf. limits] larval settlement), the 50% effective concentration (EC50) is 0.66 µg/mL (≈ 1.37 µM). Moreover, the “% Biofilm Inhibition ± SEM C. marina” value in the series with C. marina is listed as “N.I”. Also, the inhibition at 0.98 µg/mL with M. luteus (Micrococcus luteus, 0.98 µg/mL, read-out: % inhibition of biofilm formation M. luteus) came to 59 ± 7.4%. In addition, the inhibition at 1.95 µg/mL with M. luteus (Micrococcus luteus, 1.95 µg/mL, read-out: % inhibition of biofilm formation M. luteus) was found to be 90.3 ± 3.8%. In addition, the inhibition at 3.91 µg/mL in the series on M. luteus (Micrococcus luteus, 3.91 µg/mL, read-out: % inhibition of biofilm formation M. luteus) stood at 95.8 ± 2.9%. Also, the inhibition at 7.81 µg/mL in the series on M. luteus (Micrococcus luteus, 7.81 µg/mL, read-out: % inhibition of biofilm formation M. luteus) came out at 96.7 ± 0.5%. Also, the inhibition at 15.6 µg/mL in the series with M. luteus (Micrococcus luteus, 15.6 µg/mL, read-out: % inhibition of biofilm formation M. luteus) stood at 95.4 ± 0.9%. Besides, in the series with M. luteus (Micrococcus luteus, 31.25 µg/mL, read-out: % Biofilm Inhibition ± SEM M. luteus), the inhibition at 31.25 µg/mL amounted to 88.6 ± 2.9%. In addition, the “% inhibition of biofilm formation M. luteus” value with M. luteus (concentrations higher than 1.95 µg/mL) is on record as more than 90%.
